Measured values published in ChEMBL document CHEMBL1201862, “PubChem BioAssay data set” (2004).
Activity calls are given as the source filed them.

Legend:
Type in all cases: functional
Caspase-3 = target: T1, Caspase-3 (Homo sapiens, UniProt P42574);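 also: Dose-response selectivity test against caspase-3 for candidate inhibitors of sentrin-specific proteases (SENPs)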
T1 sequence (P42574 whole entry): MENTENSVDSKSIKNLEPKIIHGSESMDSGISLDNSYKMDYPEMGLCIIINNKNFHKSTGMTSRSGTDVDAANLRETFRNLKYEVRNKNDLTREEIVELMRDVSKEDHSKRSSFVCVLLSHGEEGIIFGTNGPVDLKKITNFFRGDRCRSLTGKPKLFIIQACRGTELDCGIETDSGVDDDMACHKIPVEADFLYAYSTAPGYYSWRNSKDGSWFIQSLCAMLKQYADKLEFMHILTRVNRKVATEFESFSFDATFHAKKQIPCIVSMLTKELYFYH

[1] = target: T2, Sentrin-specific protease 6 (Homo sapiens, UniProt Q9GZR1);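 also: Luminescence-based dose-response confirmatory assay of SENP6 inhibition, following up an ultra-high-throughput screen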
T2 sequence (Q9GZR1 whole entry): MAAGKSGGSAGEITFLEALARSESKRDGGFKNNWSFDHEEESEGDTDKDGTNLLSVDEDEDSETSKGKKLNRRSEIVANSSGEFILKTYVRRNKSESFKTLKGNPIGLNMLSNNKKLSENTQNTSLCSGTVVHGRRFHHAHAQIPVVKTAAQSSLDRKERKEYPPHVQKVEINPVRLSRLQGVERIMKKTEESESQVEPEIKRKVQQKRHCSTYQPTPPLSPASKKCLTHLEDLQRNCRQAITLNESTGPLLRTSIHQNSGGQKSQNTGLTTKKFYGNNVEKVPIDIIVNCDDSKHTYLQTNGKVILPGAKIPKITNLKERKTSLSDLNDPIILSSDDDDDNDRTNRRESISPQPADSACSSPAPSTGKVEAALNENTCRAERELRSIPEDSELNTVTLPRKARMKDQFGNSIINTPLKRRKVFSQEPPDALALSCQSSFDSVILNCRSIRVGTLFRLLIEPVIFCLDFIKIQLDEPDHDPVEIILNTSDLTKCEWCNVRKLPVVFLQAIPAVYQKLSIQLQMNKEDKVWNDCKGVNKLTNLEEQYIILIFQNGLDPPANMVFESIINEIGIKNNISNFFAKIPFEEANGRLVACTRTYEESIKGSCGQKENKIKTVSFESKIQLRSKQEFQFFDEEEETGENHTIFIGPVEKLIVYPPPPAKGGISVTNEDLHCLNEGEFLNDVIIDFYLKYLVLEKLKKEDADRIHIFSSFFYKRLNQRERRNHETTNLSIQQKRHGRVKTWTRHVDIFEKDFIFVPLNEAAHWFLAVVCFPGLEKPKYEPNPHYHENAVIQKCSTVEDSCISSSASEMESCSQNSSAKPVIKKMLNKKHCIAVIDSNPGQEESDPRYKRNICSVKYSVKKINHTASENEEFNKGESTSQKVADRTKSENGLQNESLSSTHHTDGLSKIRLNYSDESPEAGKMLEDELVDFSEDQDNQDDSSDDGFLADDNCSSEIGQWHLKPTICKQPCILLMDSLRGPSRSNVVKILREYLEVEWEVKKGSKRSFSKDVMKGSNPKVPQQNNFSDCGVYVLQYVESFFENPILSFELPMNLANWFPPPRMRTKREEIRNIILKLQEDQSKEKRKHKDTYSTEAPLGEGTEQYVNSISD

[2] = target: T3, Sentrin-specific protease 7 (Homo sapiens, UniProt Q9BQF6);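 also: Luminescence-based dose-response confirmation of ultra-high-throughput screening hits, measuring inhibition of SENP7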
T3 sequence (Q9BQF6 whole entry): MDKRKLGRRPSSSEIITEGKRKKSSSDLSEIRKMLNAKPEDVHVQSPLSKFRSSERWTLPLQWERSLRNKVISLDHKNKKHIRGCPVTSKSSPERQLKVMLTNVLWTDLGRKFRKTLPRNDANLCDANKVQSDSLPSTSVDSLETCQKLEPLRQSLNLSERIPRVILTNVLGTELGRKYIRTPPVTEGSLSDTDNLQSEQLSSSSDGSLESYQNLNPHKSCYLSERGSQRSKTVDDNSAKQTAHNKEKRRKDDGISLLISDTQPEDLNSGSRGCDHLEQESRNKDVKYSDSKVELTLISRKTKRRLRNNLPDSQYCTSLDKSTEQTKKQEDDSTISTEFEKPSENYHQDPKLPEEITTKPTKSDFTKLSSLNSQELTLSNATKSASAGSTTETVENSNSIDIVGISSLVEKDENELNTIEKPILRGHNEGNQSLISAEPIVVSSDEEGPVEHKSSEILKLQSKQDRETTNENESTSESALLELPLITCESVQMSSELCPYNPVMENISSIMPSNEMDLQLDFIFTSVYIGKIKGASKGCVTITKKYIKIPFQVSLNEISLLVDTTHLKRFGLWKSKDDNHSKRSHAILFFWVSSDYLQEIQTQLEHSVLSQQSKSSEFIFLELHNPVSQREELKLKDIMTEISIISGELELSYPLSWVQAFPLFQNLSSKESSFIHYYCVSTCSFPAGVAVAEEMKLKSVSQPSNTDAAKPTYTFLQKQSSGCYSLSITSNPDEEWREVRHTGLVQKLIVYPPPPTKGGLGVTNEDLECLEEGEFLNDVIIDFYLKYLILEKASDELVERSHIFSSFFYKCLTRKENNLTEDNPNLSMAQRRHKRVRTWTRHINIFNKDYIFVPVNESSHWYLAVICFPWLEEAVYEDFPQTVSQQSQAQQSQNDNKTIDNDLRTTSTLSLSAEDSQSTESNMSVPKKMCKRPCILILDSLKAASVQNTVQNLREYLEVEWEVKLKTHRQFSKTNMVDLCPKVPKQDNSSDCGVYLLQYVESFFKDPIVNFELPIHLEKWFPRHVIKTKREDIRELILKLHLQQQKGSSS

[3] = target: T4, Sentrin-specific protease 8 (Homo sapiens, UniProt Q96LD8);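 also: luminescence read-out of SENP8 inhibition, dose-response confirmation following an ultra-high-throughput screen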
T4 sequence (Q96LD8 whole entry): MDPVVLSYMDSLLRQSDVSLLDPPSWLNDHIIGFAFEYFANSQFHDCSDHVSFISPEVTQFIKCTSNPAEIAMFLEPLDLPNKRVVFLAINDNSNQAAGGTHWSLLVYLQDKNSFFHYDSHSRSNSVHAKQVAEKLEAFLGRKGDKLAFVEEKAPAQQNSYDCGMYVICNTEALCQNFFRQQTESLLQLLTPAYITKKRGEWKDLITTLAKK

Fatty acid synthase [4] = target: T5, Fatty acid synthase (Homo sapiens, UniProt P49327); assay: inhibition of human FAS-TE enzyme activity – biochemical, kinetic fluorescence intensity, dose response (AID 624326);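 also: rate of fluorescence rise from hydrolysis of a fluorogenic O-methyl fluorescein ester substrate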
T5 sequence (P49327 whole entry): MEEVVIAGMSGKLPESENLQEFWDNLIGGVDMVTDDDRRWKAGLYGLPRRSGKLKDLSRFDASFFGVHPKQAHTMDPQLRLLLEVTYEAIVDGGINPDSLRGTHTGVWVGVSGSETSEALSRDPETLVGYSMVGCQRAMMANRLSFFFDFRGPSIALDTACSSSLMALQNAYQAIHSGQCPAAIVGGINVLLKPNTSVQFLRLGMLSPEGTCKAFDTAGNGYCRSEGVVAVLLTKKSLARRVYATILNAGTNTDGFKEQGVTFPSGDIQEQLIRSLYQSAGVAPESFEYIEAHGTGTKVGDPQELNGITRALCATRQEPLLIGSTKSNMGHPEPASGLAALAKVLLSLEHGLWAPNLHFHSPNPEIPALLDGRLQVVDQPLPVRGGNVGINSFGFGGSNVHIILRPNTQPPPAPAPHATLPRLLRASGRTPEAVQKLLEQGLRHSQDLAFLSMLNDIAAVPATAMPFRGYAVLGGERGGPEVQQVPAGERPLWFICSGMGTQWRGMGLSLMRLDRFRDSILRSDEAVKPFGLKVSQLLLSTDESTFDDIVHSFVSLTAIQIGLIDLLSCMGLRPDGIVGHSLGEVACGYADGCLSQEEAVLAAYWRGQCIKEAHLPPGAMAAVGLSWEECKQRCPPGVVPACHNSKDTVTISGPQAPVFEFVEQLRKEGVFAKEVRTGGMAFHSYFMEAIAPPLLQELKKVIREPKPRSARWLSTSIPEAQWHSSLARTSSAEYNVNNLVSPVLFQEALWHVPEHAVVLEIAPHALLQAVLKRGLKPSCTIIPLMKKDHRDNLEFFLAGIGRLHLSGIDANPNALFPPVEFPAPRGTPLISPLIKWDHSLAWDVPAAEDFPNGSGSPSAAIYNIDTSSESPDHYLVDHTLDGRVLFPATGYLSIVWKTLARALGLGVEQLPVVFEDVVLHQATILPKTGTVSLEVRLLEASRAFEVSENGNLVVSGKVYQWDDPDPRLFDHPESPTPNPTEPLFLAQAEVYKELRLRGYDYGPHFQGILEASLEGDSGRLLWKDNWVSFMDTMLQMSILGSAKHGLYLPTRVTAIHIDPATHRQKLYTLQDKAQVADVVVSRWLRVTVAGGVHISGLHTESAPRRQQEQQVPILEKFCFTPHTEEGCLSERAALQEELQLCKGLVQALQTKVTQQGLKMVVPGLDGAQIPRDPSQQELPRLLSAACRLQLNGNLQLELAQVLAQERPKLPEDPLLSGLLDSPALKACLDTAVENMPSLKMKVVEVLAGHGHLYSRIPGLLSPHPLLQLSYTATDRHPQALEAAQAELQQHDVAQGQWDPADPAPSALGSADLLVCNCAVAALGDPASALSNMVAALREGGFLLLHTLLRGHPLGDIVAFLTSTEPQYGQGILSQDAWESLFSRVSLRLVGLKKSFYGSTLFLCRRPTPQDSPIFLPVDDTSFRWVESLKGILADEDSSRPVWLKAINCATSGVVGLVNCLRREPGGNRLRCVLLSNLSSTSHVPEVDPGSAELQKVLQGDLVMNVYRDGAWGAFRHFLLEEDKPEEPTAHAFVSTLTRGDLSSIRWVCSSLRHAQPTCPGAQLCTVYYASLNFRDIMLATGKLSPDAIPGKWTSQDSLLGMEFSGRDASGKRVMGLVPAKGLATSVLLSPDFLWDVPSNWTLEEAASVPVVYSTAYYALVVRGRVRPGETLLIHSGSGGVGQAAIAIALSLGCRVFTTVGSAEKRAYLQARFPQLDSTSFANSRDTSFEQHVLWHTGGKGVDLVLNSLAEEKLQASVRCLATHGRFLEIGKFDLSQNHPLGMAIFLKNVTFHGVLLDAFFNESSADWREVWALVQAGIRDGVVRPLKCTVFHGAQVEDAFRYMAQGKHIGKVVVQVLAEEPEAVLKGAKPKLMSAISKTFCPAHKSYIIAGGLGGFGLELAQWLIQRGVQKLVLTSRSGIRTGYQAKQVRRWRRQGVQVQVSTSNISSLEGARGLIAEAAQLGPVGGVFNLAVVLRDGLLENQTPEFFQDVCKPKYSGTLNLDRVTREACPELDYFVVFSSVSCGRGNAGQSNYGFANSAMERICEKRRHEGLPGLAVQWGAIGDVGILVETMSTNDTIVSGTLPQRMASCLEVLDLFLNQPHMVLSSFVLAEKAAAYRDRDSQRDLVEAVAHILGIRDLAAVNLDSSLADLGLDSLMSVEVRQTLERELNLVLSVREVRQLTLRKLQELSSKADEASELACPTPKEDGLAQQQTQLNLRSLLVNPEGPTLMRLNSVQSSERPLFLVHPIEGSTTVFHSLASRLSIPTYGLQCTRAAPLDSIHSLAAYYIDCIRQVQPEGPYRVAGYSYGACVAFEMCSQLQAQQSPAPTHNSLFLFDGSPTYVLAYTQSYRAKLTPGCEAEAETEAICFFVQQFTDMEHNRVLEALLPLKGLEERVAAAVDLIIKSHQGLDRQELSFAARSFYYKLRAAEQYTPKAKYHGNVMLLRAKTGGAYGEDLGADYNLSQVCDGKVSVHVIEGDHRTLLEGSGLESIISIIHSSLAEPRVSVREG

Fatty acid synthase [5] = target: T5, Fatty acid synthase; assay: inhibition of human FAS-TE enzyme activity – biochemical, endpoint fluorescence intensity, uHTS hits, dose response (AID 624327);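 also: fluorescence from hydrolysis of an O-methyl fluorescein acyl ester substrate by the enzyme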
Genome polyprotein = Genome polyprotein (dengue virus type 2, UniProt P29990); assay: flavivirus cap methylation enzyme inhibition – biochemical, confirmation dose response, primary screen (AID 588689)
Chain of Genome polyprotein (P29990 2492-3391 limits assumed): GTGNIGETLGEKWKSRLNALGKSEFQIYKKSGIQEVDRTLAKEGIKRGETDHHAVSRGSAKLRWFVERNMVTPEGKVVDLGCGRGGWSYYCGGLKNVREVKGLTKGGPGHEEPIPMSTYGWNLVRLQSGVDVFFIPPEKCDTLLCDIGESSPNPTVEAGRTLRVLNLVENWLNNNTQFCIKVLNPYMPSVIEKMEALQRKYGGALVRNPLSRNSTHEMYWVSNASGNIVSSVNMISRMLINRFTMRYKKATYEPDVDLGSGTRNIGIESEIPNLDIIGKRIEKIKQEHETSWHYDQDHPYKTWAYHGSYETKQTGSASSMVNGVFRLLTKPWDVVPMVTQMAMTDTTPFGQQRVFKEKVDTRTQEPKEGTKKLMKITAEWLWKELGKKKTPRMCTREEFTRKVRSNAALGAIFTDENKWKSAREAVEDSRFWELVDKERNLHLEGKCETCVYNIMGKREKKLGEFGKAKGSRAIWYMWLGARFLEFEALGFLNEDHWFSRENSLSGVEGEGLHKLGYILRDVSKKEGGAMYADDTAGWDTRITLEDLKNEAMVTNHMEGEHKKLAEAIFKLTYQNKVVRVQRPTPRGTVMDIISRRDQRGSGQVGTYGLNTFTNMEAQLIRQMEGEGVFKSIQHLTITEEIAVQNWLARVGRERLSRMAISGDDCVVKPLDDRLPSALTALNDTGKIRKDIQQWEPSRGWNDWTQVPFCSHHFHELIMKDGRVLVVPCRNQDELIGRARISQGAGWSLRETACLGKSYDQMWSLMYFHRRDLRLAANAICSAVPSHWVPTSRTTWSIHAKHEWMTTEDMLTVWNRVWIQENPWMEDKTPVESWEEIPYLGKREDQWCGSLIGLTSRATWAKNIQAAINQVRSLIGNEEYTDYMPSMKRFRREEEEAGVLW

[6] = target: T6, Replicative DNA helicase DnaB (Mycobacterium tuberculosis, UniProt P9WMR3); assay: DnaB intein splicing inhibitors, dose response, biochemical, cell-free fluorescence (AID 449749)
T6 sequence (P9WMR3 whole entry): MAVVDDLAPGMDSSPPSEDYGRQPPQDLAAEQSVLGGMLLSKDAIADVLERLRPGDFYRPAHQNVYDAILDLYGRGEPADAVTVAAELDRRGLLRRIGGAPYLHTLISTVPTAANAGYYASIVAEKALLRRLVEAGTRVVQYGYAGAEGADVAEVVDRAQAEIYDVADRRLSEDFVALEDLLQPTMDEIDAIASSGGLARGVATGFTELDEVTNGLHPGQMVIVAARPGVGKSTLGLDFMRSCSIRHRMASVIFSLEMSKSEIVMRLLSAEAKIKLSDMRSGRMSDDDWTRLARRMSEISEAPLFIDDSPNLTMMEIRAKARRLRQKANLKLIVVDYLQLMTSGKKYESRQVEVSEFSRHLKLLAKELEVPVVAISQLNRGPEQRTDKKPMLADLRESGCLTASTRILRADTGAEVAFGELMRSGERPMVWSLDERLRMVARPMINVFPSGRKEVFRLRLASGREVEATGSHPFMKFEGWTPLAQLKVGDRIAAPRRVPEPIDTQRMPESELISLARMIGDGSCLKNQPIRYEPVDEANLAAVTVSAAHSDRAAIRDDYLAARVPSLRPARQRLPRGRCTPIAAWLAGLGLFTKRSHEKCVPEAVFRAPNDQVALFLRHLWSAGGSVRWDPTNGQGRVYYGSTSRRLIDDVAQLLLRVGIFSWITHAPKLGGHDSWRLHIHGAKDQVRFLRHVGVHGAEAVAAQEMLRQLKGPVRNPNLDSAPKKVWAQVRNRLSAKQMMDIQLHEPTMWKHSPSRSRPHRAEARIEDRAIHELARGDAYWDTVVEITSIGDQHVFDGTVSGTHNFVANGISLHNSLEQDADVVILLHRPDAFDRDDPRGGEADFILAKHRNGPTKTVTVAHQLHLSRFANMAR

Protein RecA = target: T7, Protein RecA (Mycobacterium tuberculosis, UniProt P9WHJ3); assay: Fluorescence Cell-Free Homogeneous Dose Retest to Identify Inhibitors of RecA-Intein Splicing Activity. [Related pubchem assays (depositor defined):AID2097, AID2223, AID489010, AID492950]
T7 sequence (P9WHJ3 whole entry): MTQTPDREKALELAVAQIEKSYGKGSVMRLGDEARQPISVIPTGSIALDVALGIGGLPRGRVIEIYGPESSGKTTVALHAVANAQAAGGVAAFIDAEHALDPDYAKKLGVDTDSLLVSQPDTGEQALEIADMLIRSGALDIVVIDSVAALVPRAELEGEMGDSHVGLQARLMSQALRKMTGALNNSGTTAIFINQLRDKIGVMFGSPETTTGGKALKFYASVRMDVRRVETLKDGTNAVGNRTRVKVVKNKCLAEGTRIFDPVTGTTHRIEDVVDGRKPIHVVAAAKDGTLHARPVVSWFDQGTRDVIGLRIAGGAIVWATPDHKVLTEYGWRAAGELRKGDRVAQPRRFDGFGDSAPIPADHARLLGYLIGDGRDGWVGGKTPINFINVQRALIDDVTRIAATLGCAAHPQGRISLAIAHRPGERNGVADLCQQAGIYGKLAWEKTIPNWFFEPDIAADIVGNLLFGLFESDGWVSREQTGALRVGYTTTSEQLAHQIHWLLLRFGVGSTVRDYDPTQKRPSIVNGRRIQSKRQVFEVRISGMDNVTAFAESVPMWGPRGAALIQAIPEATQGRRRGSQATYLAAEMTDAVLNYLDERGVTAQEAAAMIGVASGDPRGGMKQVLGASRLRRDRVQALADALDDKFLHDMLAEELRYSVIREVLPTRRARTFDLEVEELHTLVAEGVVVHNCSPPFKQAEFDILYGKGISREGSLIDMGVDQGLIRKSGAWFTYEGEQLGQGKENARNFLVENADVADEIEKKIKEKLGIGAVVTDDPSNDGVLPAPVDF

In the case of `Cc1nc(Cl)sc1C(=O)Nc1ccc2ccccc2c1`, the IC50 (Caspase-3) is reported as 22.7 µM (active), the IC50 [1] is reported as 23.9 µM (active) and the IC50 [2] is reported as 7.54 µM (active). The IC50 [3] was 29.8 µM (active).

With `COCC(C)n1c(C)cc(C(=O)COC(=O)c2n[nH]c3ccccc23)c1C` (configuration not stated) the IC50 (Caspase-3) was 16.8 µM (active), the IC50 [1] was 24.3 µM (active) and the IC50 [2] was 7.13 µM (active). For the same molecule, the IC50 [3] was 42.9 µM (active).

In the case of `O=c1oc(-c2ccco2)nc2sc3c(c12)CCCCC3`, the IC50 (Fatty acid synthase [4]) is reported as 3.45 µM (active) and the IC50 (Fatty acid synthase [5]) is reported as 5.34 µM (active).

`CCN(CCCNc1cc2c(c(N)c1S(=O)(=O)O)C(=O)c1ccccc1C2=O)c1ccccc1` was tested, and the IC50 (Genome polyprotein) was 31.6 µM (active).

With `CC1=NN(c2ccccc2)C(=O)C1=Cc1ccccc1` the IC50 (Genome polyprotein) was 59.4 µM (active).

In the case of `O=C(Cn1cc([N+](=O)[O-])ccc1=O)N1CCc2ccccc2C1`, the IC50 (Fatty acid synthase [4]) is reported as 5.97 µM (active) and the IC50 (Fatty acid synthase [5]) is reported as 3.74 µM (active).

With `CCOC(=O)CC1=NN(c2ccccc2)C(=O)/C1=C\c1ccc(OC)cc1OC` the AC50 [6] was 0.805 µM (active), the IC50 (Genome polyprotein) was 27.1 µM (active) and the EC50 (Protein RecA) was 0.104 µM (active).

In the case of `O=C(COC(=O)c1cc([N+](=O)[O-])ccc1NCCO)Nc1ccc2c(c1)OCO2`, the IC50 (Fatty acid synthase [4]) is reported as 4.51 µM (active) and the IC50 (Fatty acid synthase [5]) is reported as 2.69 µM (active).

With `O=C(CCN1C(=O)/C(=C\c2ccccc2Cl)SC1=S)Nc1cccnc1` the IC50 (Fatty acid synthase [4]) was 6.84 µM (active) and the IC50 (Fatty acid synthase [5]) was 7.21 µM (active).

For `O=C(O)c1cccc(NC(=O)c2cccc(S(=O)(=O)Nc3cccc([N+](=O)[O-])c3)c2)c1`, the IC50 (Caspase-3) was 19.2 µM (active), the IC50 [1] was 9.02 µM (active) and the IC50 [2] was 5.29 µM (active). For the same molecule, the IC50 [3] was 11.9 µM (active).

`COc1ccc(Cl)cc1/C=C1/C(=O)ON=C1C` was tested, and the IC50 (Genome polyprotein) was > 100 µM (active).

With `CC(C)c1ccc(/N=C/c2c(O)oc3ccccc3c2=O)cc1` the IC50 (Caspase-3) was 16.9 µM (active), the IC50 [1] was 30.5 µM (active) and the IC50 [2] was 3.15 µM (active). The IC50 [3] was 90.6 µM (active).

For `Cc1nnc(SC(C(=O)Nc2ccc(Cl)c([N+](=O)[O-])c2)c2ccccc2)nc1O` (configuration not stated), the IC50 (Fatty acid synthase [4]) was 15.9 µM (active) and the IC50 (Fatty acid synthase [5]) was 17.3 µM (active).
